Reference: patent US5389663A, “1-(1h-1,2,4-triazole-yl)-2-propanol compounds” (Takeda Chemical Industries, Ltd., priority 1991, dated 1995)

Each compound was assayed on Candida albicans IFO 0583 (assay: Paper disc agar diffusion, growth inhibition zone, Candida albicans IFO 0583). Conditions: Candida albicans, IFO0583, 48 h, Table 5; Medium A, 28° C., two-day culture, 1000 μ/ml, 8 mm disc; read-out: Diameter of growth-inhibition zone.
Type: cell-based
Description: Evaluation of the antifungal activities of the compound of formula (I) was conducted by the following method: a sheet of filter paper disc (manufactured by Toyo Seisakusho, 8 mm in diameter) soaked in a […] solution of a compound of formula (I) in methanol was placed on an agar plate containing various fungi, which was incubated at 28° C. for two days, and the diameter of the growth inhibition zone around the filter paper disc was measured. The following culture media were used: A: yeast nitrogen base agar medium (pH 7.0) B: Sabouraud agar medium
cpd. No. (Medium A, 28° C., two-day culture)

Going from `CCCCNS(=O)(=O)C(C)=C(Cn1cncn1)c1ccc(F)cc1F` (single isomer, unassigned) [Compound 32, N-butyl-3-(2,4-difluorophenyl)-4-(1H-1,2,4-triazol-1-yl) -2-butene-2-sulfonamide] to `CC(=C(Cn1cncn1)c1ccc(F)cc1F)S(=O)(=O)N(C)C` (single isomer, unassigned) [Compound 34, N,N-dimethyl-3-(2,4-difluorophenyl)-4-(1H-1,2,4-triazol-1-yl)-2-butene-2-sufonamide], the zone of inhibition at 1000 µg/mL rises from 12 mm to 15 mm.

Going from `C[C@@H](SNC1CCCCC1)[C@](O)(Cn1cncn1)c1ccc(F)cc1F` [Compound 5] to `C[C@@H](SN1CCOCC1)[C@](O)(Cn1cncn1)c1ccc(F)cc1F` [Compound 7, N-[(2R,3R)-3-(2,4-difluorophenyl)-3-hydroxy-4-(1H-1,2,4-triazol-1-yl) -2-butylsulfenyl]morpholine], the zone of inhibition at 1000 µg/mL falls from 35 mm to 33 mm.

Compared with `C[C@@H](SN1CCN(C(=O)OC(C)(C)C)CC1)[C@](O)(Cn1cncn1)c1ccc(F)cc1F` [Compound 17, N-tert-butoxycarbonyl-4-[(2R,3R)-3-(2,4-difluorophenyl)-3-hydroxy-4-(1H-1,2,4-triazol-1-yl)-2-butylsulfenyl]piperazine], `C[C@@H]([S+]([O-])N1CCN(C(=O)OC(C)(C)C)CC1)[C@](O)(Cn1cncn1)c1ccc(F)cc1F` (some centres unmarked) [Compound 18] is lower in zone of inhibition at 1000 µg/mL: 40 mm for the first, 37 mm for the second.

Compared with `C[C@H]([C@](O)(Cn1cncn1)c1ccc(F)cc1F)S(=O)(=O)N1CCN(C(=O)OC(C)(C)C)CC1` [Compound 19, 1-tert-butoxycarbonyl-4-[(2R,3R)-3-(2,4-difluorophenyl)-3-hydroxy-4-(1H-i,2,4-triazol-1-yl) -2-butylsulfonyl]piperazine], `CC(=O)N1CCN(S(=O)(=O)[C@H](C)[C@](O)(Cn2cncn2)c2ccc(F)cc2F)CC1` [Compound 25, 1-acetyl-4-[(2R,3R)-3-(2,4-difluorophenyl)-3-hydroxy-4-(1H-1,2,4-triazol-1-yl)-2-butylsulfonyl]piperazine] is lower in zone of inhibition at 1000 µg/mL: 40 mm for the first, 30 mm for the second.

Going from `C[C@H]([C@](O)(Cn1cncn1)c1ccc(F)cc1F)S(=O)(=O)N1CCNCC1` [Compound 20, 1-[(2R,3R)-3-(2,4-difluorophenyl)-3hydroxy-4-(1H-2,4-triazol-1-yl)-2-butylsulfonyl]piperazine] to `C[C@H]([C@](O)(Cn1cncn1)c1ccc(F)cc1F)S(=O)(=O)N1CCCC1` [Compound 28, 1-[(2R,3R)-3-(2,4-difluorophenyl)-3-hydroxy-4-(1H-1,2,4-triazol-1-yl)-2-butylsulfonyl]pyrrolidine], the zone of inhibition at 1000 µg/mL rises from 22 mm to 50 mm.

First: C[C@H]([C@](O)(Cn1cncn1)c1ccc(F)cc1F)S(=O)(=O)Nc1ccc(Br)cc1 [Compound 22, N-(4-bromophenyl)-[(2R, 3R)-3-(2,4-difluorophenyl)-3-hydroxy-4-(1H-1,2,4-triazol-1-yl)-2-butane]sulfonamide]
Second: C[C@@H](NS(=O)(=O)c1ccc(N)cc1)[C@](O)(Cn1cncn1)c1ccc(F)cc1F [Compound 52]
The zone of inhibition at 1000 µg/mL of the first is lower: 30 mm for the first, 35 mm for the second.

Compared with `C[C@H]([C@](O)(Cn1cncn1)c1ccc(F)cc1F)S(=O)(=O)N1CCN(C(=O)c2ccc(C(F)(F)F)cc2)CC1` [Compound 24, 1-[(2R,3R)-3-(2,4-difluorophenyl)-3-hydroxy-4-(1H-1,2,4-triazol-1-yl)-2-butylsulfonyl]-4-(4-trifluoromethylbenzoyl)piperazine], `C[C@H]([C@](O)(Cn1cncn1)c1ccc(F)cc1F)S(=O)(=O)N1CCN(c2ccc(-n3cnn(CC(F)(F)F)c3=O)cc2)CC1` [Compound 44, 1-[4-[2-(2,2,2-trifluoroethyl)-2,3-dihydro-3-oxo-4H-1,2,4-triazol-4-yl]phenyl]-4-[(2R,3R)-3-(2,4-difluorophenyl)-3-hydroxy-4-(1H-1,2,4-triazol-1-yl)-2-butanesulfonyl]piperazine] is lower in zone of inhibition at 1000 µg/mL: 37 mm for the first, 33 mm for the second.

Going from `C[C@H]([C@](O)(Cn1cncn1)c1ccc(F)cc1F)S(=O)(=O)N1CCN(Cc2nncn2C)CC1` [Compound 26, 1-[(2R,3R)-3-(2,4-difluorophenyl)-3-hydroxy-4-(1H-1,2,4-triazol-1-yl)-2-butylsulfonyl]-4-(4-methyl-4H-1,2,4-triazol-3-ylmethyl) piperazine] to `C[C@H]([C@](O)(Cn1cncn1)c1ccc(F)cc1F)S(=O)(=O)NCc1nncn1C` [Compound 41, N-(4-methyl-4H-1,2,4-triazol-3-ylmethyl)-[(2R,3R)-3-(2,4-difluorophenyl)-3-hydroxy-4-(1H-1,2,4-triazol-1-yl)-2-butane]sulfonamide], the zone of inhibition at 1000 µg/mL rises from 20 mm to 23 mm.

Going from `CCC(C)n1ncn(-c2ccc(N3CCN(S(=O)(=O)[C@H](C)[C@](O)(Cn4cncn4)c4ccc(F)cc4F)CC3)cc2)c1=O` (stereo partly drawn) [Compound 42, 1-[4-[2-(2-butyl)-2,3-dihydro-3-oxo-4H-1,2,4-triazol-4-yl]phenyl]-4-[(2R,3R)-3-(2,4-difluorophenyl)-3-hydroxy-4-(1H-1,2,4-triazol-1-yl)-2-butanesulfonyl]piperazine] to `CCC(C)n1ncn(-c2ccc(N3C=CN(S(=O)(=O)[C@H](C)[C@](O)(Cn4cncn4)c4ccc(F)cc4F)CC3)cc2)c1=O` (stereo partly drawn) [Compound 43, 1-[4-[2-(2-butyl)-2,3-dihydro-3-oxo-4H-1,2,4-triazol-4-yl]phenyl]-4-[(2R,3R)-3-(2,4-difluorophenyl)-3-hydroxy-4-(1H-1,2,4-triazol-1-yl)-2-butanesulfonyl]-1,2,3,4-tetrahydropyrazine], the zone of inhibition at 1000 µg/mL falls from 40 mm to 35 mm.

First: C[C@H]([C@](O)(Cn1cncn1)c1ccc(F)cc1F)S(=O)(=O)N1CCN(c2ncccn2)CC1 [Compound 45, 1-[(2R,3R)-3-(2,4-difluorophenyl)-3-hydroxy-4-(1H-1,2,4-triazol-1-yl)-2-butanesulfonyl]-4-(2-pyrimidinyl) piperazine]
Second: C#CCN(C)S(=O)(=O)[C@H](C)[C@](O)(Cn1cncn1)c1ccc(F)cc1F [Compound 62, N-methyl-N-(2-propinyl)-[(2R,3R)-3-(2,4-difluorophenyl)-3-hydroxy-4-(1H-1,2,4-triazol-1-yl)-2-butane]sulfonamide]
The zone of inhibition at 1000 µg/mL of the first is higher: 50 mm for the first, 45 mm for the second.

Compared with `C[C@H]([C@](O)(Cn1cncn1)c1ccc(F)cc1F)S(=O)(=O)N(C)Cc1ccccc1` [Compound 47, N-benzyl-N-methyl-[(2R,3R)-3-(2,4-difluorophenyl)-3-hydroxy-4-(1H-1,2,4-triazol-1-yl)-2-butane]sulfonamide], `C[C@H]([C@](O)(Cn1cncn1)c1ccc(F)cc1F)S(=O)(=O)N(C)Cc1ccc(C(F)(F)F)cc1` [Compound 66, N-methyl-N-(4-trifluoromethylbenzyl)-[(2R,3R)-3-(2,4-difluorophenyl)-3-hydroxy-4-(1H-1,2,4-triazol-1-yl)-2-butane]sulfonamide] is lower in zone of inhibition at 1000 µg/mL: 45 mm for the first, 42 mm for the second.

First: C[C@@H](NS(=O)(=O)c1ccc(F)cc1F)[C@](O)(Cn1cncn1)c1ccc(F)cc1F [Compound 50]
Second: C[C@@H](NS(=O)(=O)CCCCl)[C@](O)(Cn1cncn1)c1ccc(F)cc1F [Compound 56]
The zone of inhibition at 1000 µg/mL of the first is higher: 45 mm for the first, 30 mm for the second.

First: C[C@@H](N1CCCS1(=O)=O)[C@](O)(Cn1cncn1)c1ccc(F)cc1F [Compound 57]
Second: C[C@H]([C@](O)(Cn1cncn1)c1ccc(F)cc1F)S(=O)(=O)N(C)CC#CC(C)(C)C [Compound 63, N-(4,4-dimethyl-2-pentynyl)-N-methyl-[(2R,3R)-3-(2,4-difluorophenyl)-3-hydroxy-4-(1H-1,2,4-triazol-1-yl)-2-butane]sulfonamide]
The zone of inhibition at 1000 µg/mL of the first is lower: 35 mm for the first, 40 mm for the second.

Going from `COc1ccc(CNS(=O)(=O)[C@H](C)[C@](O)(Cn2cncn2)c2ccc(F)cc2F)cc1OC` [Compound 60, N-(3,4-dimethoxybenzyl)-[(2R,3R)-3-(2,4-difluorophenyl)-3-hydroxy-4-(1H-1,2,4-triazol-1-yl)-2-butane]sulfonamide] to `C[C@H]([C@](O)(Cn1cncn1)c1ccc(F)cc1F)S(=O)(=O)N(C)Cc1ccc(C(F)(F)F)cc1F` [Compound 67, N-(2-fluoro-4-trifluoromethylbenzyl)-N-methyl-[(2R,3R)-3-(2,4-difluorophenyl)-3-hydroxy-4-(1H-1,2,4-triazol-1-yl)-2-butane]sulfonamide], the zone of inhibition at 1000 µg/mL rises from 35 mm to 42 mm.

Going from `CCCCCCCCCCCCN(C)S(=O)(=O)[C@H](C)[C@](O)(Cn1cncn1)c1ccc(F)cc1F` [Compound 61, N-dodecyl-N-methyl-[(2R,3R)-3-(2,4-difluorophenyl)-3-hydroxy-4-(1H-1,2,4-triazol-1-yl)-2-butane]sulfonamide] to `C[C@H]([C@](O)(Cn1cncn1)c1ccc(F)cc1F)S(=O)(=O)N(C)C/C=C/C#CC(C)(C)C` [Compound 68, N-[(E)-6,6-dimethyl-2-hepten-4-ynyl]-N-methyl-[(2R,3R)-3-(2,4-difluorophenyl)-3-hydroxy-4-(1H-1,2,4-triazol-1-yl)-2-butane]sulfonamide], the zone of inhibition at 1000 µg/mL rises from 18 mm to 42 mm.

Same assay, conditions: Table 5; Medium A, 28° C., two-day culture, 1000 μ/ml, 8 mm disc

For `CC(=C(Cn1cncn1)c1ccc(F)cc1F)S(=O)(=O)N1CCN(c2ccccc2)CC1` (single isomer, unassigned) [Compound 30, 1-[3-(2,4-difluorophenyl)-4-(1H-1,2,4-triazol-1-yl)-2-buten-2-ylsulfonyl]-4-phenylpiperazine], the “Diameter of growth-inhibition zone” value was 12 mm.
With `CC(=C(Cn1cncn1)c1ccc(F)cc1F)S(=O)(=O)N1CCN(c2ccccc2)CC1` (single isomer, unassigned) [Compound 31, 1-[3-(2,4-difluorophenyl)-4-(1H-1,2,4-triazol-1-yl)-2-buten-2-ylsulfonyl]-4-phenylpiperazine] the “Diameter of growth-inhibition zone” value was 35 mm.
